Assay results: PubChem BioAssay (NCI)
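1) Cells in 96-well plates. 2) Compound, 48 h, 5 concentrations. 3) Linear interpolation between surrounding doses. 4) Unreached endpoint = highest concentration. TGI: concentration producing complete growth inhibition.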

What was measured:
Test in all cases: NCI tumour cell line growth inhibition, 48 h
HCT-116 colon = system: HCT-116 colon
PC-3 prostate = system: PC-3 prostate
SK-OV-3 ovarian = system: SK-OV-3 ovarian
SK-MEL-28 melanoma = system: SK-MEL-28 melanoma
MDA-MB-231 breast = system: MDA-MB-231 breast
ACHN renal = system: ACHN renal
SNB-75 CNS = system: SNB-75 CNS
NCI-H226 lung = system: NCI-H226 lung
KM12 colon = system: KM12 colon
SF-268 CNS = system: SF-268 CNS
M14 melanoma = system: M14 melanoma
HCC-2998 colon = system: HCC-2998 colon
T-47D breast = system: T-47D breast
SK-MEL-5 melanoma = system: SK-MEL-5 melanoma
HCT-15 colon = system: HCT-15 colon
RPMI-8226 leukemia = system: RPMI-8226 leukemia
SF-295 CNS = system: SF-295 CNS
786-0 renal = system: 786-0 renal
EKVX NSCLC = system: EKVX NSCLC
A498 renal = system: A498 renal
A549 NSCLC = system: A549 NSCLC
NCI-H460 lung = system: NCI-H460 lung
U251 CNS = system: U251 CNS
NCI-H23 lung = system: NCI-H23 lung
SW-620 colon = system: SW-620 colon
HT29 colon = system: HT29 colon
DU-145 prostate = system: DU-145 prostate
UACC-257 melanoma = system: UACC-257 melanoma
CAKI-1 renal = system: CAKI-1 renal
OVCAR-5 ovarian = system: OVCAR-5 ovarian
MOLT-4 leukemia = system: MOLT-4 leukemia
K-562 leukemia = system: K-562 leukemia
SK-MEL-2 melanoma = system: SK-MEL-2 melanoma
NCI/ADR-RES ovarian = system: NCI/ADR-RES ovarian
CCRF-CEM leukemia = system: CCRF-CEM leukemia
COLO 205 colon = system: COLO 205 colon
OVCAR-8 ovarian = system: OVCAR-8 ovarian
UO-31 renal = system: UO-31 renal
HL-60(TB) leukemia = system: HL-60(TB) leukemia
IGROV1 ovarian = system: IGROV1 ovarian
MDA-MB-435 = system: MDA-MB-435
UACC-62 melanoma = system: UACC-62 melanoma
SN12C renal = system: SN12C renal
BT-549 breast = system: BT-549 breast
LOX IMVI melanoma = system: LOX IMVI melanoma
OVCAR-3 ovarian = system: OVCAR-3 ovarian
HOP-92 NSCLC = system: HOP-92 NSCLC
SF-539 CNS = system: SF-539 CNS
SNB-19 CNS = system: SNB-19 CNS
RXF 393 renal = system: RXF 393 renal
HOP-62 NSCLC = system: HOP-62 NSCLC
MALME-3M melanoma = system: MALME-3M melanoma
TK-10 renal = system: TK-10 renal
OVCAR-4 ovarian = system: OVCAR-4 ovarian
HS 578T breast = system: HS 578T breast

Measured: TGI

O=C(OCc1ccccc1)c1nc2ccccc2n1S(=O)(=O)c1ccccc1
> 100 µM: all assays above
